# Data as given in patent publication US20130150377A1, “Tetrahydropyridinyl and Dihydropyrrolyl Compounds and the Use Thereof” (SHIONOGI & CO., LTD., priority 2008, published 2013).
# Counter-ions that a name gives are not always drawn.
# Biological target: T1, N-type calcium channel (NTCC) (Homo sapiens, UniProt Q00975)
# T1 construct: endogenous in cells; host or cells: differentiated IMR32 cells (ATCC)
# Experiment: FLIPR calcium mobilization assay for N-type calcium channel (differentiated IMR32 cells)
# Assay type: cell-based
# Conditions: N-type calcium channel blockers, calcium mobilization in vitro assay
# Experimental: Cell maintenance and differentiation. Unless noted otherwise, cell culture reagents were purchased from Mediatech of Herndon, Md. IMR32 cells (American Type Culture Collection, ATCC, Manassas, Va.) were routinely cultured in growth medium consisting of minimum essential medium containing 10% fetal bovine serum (FBS, Hyclone, Logan, Utah), 100 U/mL penicillin, 100 μg/mL streptomycin, 2 mM L-glutamine, 1 mM sodium pyruvate, and 1×MEM non-essential amino acids. 80-90% confluent flasks of cells were differentiated using the following differentiation medium: Growth medium plus 1 mM dibutyryl cyclic AMP (Sigma, St. Louis, Mo.), and 2.5 μM bromodeoxyuridine (Sigma). Cells were differentiated for 8 days by replacing differentiation medium every 2-3 days.
# FLIPR Calcium Mobilization Assay for N-type Calcium Channel.
# One day prior to performing this assay, differentiated IMR32 cells were treated with 1× CellStripper, and seeded on poly-D-lysine-coated 96-well clear-bottom black plates (Becton Dickinson, Franklin Lakes, N.J.) at 200,000 cells/well. On the day of the assay, the cell plates were washed with IMR32 buffer (127 mM NaCl, 1 mM KCl, 2 mM MgCl2, 700 μM NaH2PO4, 5 mM CaCl2, 5 mM NaHCO3, 8 mM HEPES, 10 mM glucose, pH 7.4), then pre-stimulated with KCl and loaded as follows: […] of IMR32 buffer, 0.05 mL of each compound tested diluted in IMR32 buffer containing 20 μM nitrendipine (Sigma), and 0.1 mL KCl dissolved in IMR32 buffer, plus Fluo-4 were added (3 μM final concentration, Molecular Probes, Eugene, Oreg.). Final test compound concentrations ranged from about 846 pM to about 17 μM, final nitrendipine concentration was 5 μM, and final KCl concentration was 90 mM. After 1 hour, the cells were washed twice with 0.05 mL of each compound tested in nitrendipine-containing IMR32 buffer (no KCl or Fluo-4), and then replaced with 0.1 mL of each compound tested in nitrendipine-containing IMR32 buffer. Plates were then transferred to a Fluorimetric Imaging Plate Reader (FLIPR^96, Molecular Devices, Inc., Sunnyvale, Calif.) for assay. The FLIPR measured basal Fluo-4 fluorescence for 315 seconds (i.e., 5 minutes and 15 seconds), then added 0.1 mL KCl agonist dissolved in IMR32 buffer and measured fluorescence for another 45 seconds. Final test compound concentrations on the cells after FLIPR read ranged from about 846 pM to about 17 μM, final nitrendipine concentration was 5 μM, and final KCl concentration was 90 mM. Data were collected over the entire time course and analyzed using Excel, Graph Pad Prism (version 3.02, Graph Pad, San Diego, Calif.), or an in-house non-linear regression analysis software.
# T1 sequence (Q00975 whole entry): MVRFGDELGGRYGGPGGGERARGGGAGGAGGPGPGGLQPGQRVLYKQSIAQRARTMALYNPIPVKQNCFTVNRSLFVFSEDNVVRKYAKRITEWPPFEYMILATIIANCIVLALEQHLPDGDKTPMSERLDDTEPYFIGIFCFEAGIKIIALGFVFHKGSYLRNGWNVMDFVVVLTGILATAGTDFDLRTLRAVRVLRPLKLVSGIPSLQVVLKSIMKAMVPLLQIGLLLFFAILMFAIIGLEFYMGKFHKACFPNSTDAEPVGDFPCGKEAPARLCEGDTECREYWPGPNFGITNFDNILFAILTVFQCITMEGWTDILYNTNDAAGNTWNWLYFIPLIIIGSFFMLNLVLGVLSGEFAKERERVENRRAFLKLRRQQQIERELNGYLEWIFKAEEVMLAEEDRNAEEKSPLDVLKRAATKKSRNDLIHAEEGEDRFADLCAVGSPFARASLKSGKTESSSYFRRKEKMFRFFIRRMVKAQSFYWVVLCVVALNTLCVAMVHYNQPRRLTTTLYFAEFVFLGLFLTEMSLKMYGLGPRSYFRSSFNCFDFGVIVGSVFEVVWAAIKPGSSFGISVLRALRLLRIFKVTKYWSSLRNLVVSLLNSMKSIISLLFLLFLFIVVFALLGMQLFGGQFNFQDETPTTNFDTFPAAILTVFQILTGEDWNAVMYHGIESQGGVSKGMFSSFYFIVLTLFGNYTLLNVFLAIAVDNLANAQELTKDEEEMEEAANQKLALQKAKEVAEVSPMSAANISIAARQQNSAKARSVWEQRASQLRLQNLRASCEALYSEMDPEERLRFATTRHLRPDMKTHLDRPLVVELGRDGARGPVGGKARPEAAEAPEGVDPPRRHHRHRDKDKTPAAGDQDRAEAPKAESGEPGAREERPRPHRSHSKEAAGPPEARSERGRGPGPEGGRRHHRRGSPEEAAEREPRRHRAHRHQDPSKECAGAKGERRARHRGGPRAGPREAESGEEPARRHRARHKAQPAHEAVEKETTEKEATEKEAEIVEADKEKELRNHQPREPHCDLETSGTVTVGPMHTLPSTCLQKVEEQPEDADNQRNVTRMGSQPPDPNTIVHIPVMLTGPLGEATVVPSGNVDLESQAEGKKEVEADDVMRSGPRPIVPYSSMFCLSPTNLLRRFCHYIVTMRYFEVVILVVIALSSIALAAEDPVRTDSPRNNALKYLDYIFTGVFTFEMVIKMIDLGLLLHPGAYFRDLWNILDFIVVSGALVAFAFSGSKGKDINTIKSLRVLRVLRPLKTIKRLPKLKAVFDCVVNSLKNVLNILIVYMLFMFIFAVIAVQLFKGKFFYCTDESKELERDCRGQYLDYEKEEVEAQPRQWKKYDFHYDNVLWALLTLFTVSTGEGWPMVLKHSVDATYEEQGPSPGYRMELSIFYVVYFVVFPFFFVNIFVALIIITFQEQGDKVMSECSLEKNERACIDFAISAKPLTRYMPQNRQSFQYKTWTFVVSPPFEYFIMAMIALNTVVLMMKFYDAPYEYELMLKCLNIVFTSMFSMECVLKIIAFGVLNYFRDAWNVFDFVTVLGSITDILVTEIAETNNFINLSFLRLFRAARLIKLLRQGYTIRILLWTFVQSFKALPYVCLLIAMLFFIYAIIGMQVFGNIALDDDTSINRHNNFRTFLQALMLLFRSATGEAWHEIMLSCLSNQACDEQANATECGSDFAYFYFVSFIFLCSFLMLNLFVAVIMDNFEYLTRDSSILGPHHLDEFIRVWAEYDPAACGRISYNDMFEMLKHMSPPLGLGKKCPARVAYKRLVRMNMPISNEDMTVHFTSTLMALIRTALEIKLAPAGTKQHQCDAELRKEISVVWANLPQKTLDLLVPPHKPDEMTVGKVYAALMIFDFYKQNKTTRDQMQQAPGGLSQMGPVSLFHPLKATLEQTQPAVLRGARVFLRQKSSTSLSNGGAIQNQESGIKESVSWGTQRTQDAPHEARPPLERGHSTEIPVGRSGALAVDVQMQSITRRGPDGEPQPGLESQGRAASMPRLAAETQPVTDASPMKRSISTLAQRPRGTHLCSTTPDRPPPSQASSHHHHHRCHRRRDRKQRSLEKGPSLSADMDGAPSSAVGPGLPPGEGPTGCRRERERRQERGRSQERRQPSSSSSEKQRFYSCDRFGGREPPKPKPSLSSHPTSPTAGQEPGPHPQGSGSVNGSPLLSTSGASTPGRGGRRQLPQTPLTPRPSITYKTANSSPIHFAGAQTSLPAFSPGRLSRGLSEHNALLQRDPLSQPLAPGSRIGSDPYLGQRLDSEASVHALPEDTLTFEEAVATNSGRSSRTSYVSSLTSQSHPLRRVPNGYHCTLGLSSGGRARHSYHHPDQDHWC
# T1 sequence (P54289 25-956 partner limits assumed): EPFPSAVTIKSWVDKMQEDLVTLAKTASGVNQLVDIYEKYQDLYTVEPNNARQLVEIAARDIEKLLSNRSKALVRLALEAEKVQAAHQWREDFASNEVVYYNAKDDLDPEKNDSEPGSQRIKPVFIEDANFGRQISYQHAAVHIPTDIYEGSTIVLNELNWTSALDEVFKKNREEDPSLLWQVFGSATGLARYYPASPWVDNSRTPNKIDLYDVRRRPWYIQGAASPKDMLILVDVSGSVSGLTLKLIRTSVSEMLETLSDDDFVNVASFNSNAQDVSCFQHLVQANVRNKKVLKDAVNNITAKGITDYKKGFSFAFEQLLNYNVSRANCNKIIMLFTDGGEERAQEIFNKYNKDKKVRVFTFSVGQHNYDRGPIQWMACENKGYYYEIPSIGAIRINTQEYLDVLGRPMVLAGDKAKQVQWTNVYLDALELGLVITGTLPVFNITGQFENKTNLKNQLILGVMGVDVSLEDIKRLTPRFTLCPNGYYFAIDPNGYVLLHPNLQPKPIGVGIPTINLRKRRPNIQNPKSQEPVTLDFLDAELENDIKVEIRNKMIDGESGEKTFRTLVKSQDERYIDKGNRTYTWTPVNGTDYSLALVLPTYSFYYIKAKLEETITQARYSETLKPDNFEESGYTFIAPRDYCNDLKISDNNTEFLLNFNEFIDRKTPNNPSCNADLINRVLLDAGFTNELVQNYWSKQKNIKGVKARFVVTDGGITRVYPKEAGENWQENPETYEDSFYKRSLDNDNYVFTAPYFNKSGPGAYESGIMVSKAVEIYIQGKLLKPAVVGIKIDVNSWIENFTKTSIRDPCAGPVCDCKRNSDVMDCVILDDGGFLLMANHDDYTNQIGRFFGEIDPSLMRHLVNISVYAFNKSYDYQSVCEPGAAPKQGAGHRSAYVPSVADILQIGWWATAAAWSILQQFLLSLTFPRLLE
# T1 sequence (P54289 957-1103 partner limits assumed): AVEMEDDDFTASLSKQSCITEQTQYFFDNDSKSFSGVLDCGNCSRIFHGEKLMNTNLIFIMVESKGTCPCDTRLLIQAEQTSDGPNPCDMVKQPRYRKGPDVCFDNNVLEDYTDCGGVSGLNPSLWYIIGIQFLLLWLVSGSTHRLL
# T1 sequence (P54284 whole entry partner): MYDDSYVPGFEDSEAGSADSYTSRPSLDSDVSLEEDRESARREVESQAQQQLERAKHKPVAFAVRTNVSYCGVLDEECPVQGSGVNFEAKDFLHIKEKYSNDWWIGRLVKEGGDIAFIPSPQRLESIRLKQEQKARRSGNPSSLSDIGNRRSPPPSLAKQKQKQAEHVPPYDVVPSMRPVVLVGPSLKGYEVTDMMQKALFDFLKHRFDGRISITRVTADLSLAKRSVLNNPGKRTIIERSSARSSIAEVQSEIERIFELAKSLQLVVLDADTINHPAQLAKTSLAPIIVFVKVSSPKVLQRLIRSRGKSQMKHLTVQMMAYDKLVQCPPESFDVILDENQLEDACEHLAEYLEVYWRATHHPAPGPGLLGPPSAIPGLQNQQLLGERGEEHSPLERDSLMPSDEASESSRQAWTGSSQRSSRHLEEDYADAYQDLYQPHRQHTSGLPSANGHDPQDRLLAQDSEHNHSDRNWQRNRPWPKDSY
row,Structure (SMILES),IC50 [nM]
1,"O=C(NC1CC1)c1cccc(C2=CCN(S(=O)(=O)c3ccccn3)CC2)n1 [1′-(Pyridin-2-ylsulfonyl)-1′,2′,3′,6′-tetrahydro-[2,4′]bipyridinyl-6-carboxylic acid cyclopropylamide]",9920
2,"O=C(NC1CC1)c1cccc(C2=CCN(S(=O)(=O)c3cccnc3)CC2)n1 [1′-(Pyridin-3-ylsulfonyl)-1′,2′,3′,6′-tetrahydro-[2,4′]bipyridinyl-6-carboxylic acid cyclopropylamide]",6180
3,"O=C(NC1CC1)c1cccc(C2=CCN(S(=O)(=O)c3ccsc3)CC2)n1 [1′-(Thiophen-3-ylsulfonyl)-1′,2′,3′,6′-tetrahydro-[2,4′]bipyridinyl-6-carboxylic acid cyclopropylamide]",1050
4,"O=C(NC1CC1)c1cccc(C2=CCN(S(=O)(=O)C3CCCC3)CC2)n1 [1′-Cyclopentylsulfonyl-1′,2′,3′,6′-tetrahydro-[2,4′]bipyridinyl-6-carboxylic acid cyclopropylamide]",2700
5,"CN(C)S(=O)(=O)N1CC=C(c2cccc(C(=O)NC3CC3)n2)CC1 [1′-Dimethylsulfamoyl-1′,2′,3′,6′-tetrahydro-[2,4′]bipyridinyl-6-carboxylic acid cyclopropylamide]",> 20000
6,"NC(=O)c1ccnc(C2=CCN(S(=O)(=O)c3ccc(OC(F)(F)F)cc3)CC2)n1 [Compound 15, 2-[1-(4-Trifluoromethoxybenzenesulfonyl)-1,2,3,6-tetrahydropyridin-4-yl]-pyrimidine-4-carboxylic acid amide]",> 20000
7,"O=C(O)c1cccc(C2=CCN(S(=O)(=O)c3cccc(C(F)(F)F)c3)CC2)n1 [Compound 26, 1′-(3-Trifluoromethylbenzenesulfonyl)-1′,2′,3′,6′-tetrahydro-[2,4′]bipyridinyl-6-carboxylic acid]",> 20000
8,"N#Cc1cccc(C2=CCN(S(=O)(=O)c3cccc(C(F)(F)F)c3)CC2)n1 [Compound 32, 1′-(3-Trifluoromethylbenzenesulfonyl)-1′,2′,3′,6′-tetrahydro-[2,4′]bipyridinyl-6-carbonitrile]",1600
9,"O=C(NC1CC1)c1cccc(C2=CC3CCC(C2)N3S(=O)(=O)c2cccc(C(F)(F)F)c2)n1 (stereo not drawn) [Compound 55, 6-[8-(3-Trifluoromethylbenzenesulfonyl)-8-aza-bicyclo[3.2.1]oct-2-en-3-yl]pyridine-2-carboxylic acid cyclopropylamide]",50
10,"O=C(NC1CC1)c1cccc(C2=CCN(C(c3ccc(OC(F)(F)F)cc3)C(F)(F)F)CC2)n1 (stereo not drawn) [Compound 64, 1′-[2,2,2-Trifluoro-1-(4-trifluoromethoxyphenyl)ethyl]-1′,2′,3′,6′-tetrahydro-[2,4′]bipyridinyl-6-carboxylic acid cyclopropylamide]",320
11,"O=C(NC1CC1)c1cccc(C2=CCN(C(CO)c3ccc(OC(F)(F)F)cc3)CC2)n1 (stereo not drawn) [Compound 67, 1′-[2-Hydroxy-1-(4-trifluoromethoxyphenyl)ethyl]-1′,2′,3′,6-tetrahydro-[2,4′]bipyridinyl-6-carboxylic acid cyclopropylamide]",1340
12,"O=C(NC1CC1)c1cccc(C2=CCN(Cc3cc(C(F)(F)F)no3)CC2)n1 [Compound 76, N-Cyclopropyl-6-{1-[(3-trifluoromethylisoxazol-5-yl)methyl]-1,2,3,6-tetrahydropyridin-4-yl}picolinamide hydrochloride]",2760
13,"O=C(NC1CC1)c1cccc(C2=CCN(S(=O)(=O)Nc3cccc(C(F)(F)F)c3)CC2)n1 [Compound 86, 1′-[(3-Trifluoromethylbenzene)aminosulfonyl]-1′,2′,3′,6′-tetrahydro-[2,4′]bipyridinyl-6-carboxylic acid cyclopropylamide]",1050

# Other lines, results leading:
row,IC50 [nM],Structure (SMILES)
1,320,"O=C(NC1CC1)c1cccc(C2=CCN(S(=O)(=O)C3CCCCC3)CC2)n1 [1′-Cyclohexylsulfonyl-1′,2′,3′,6′-tetrahydro-[2,4′]bipyridinyl-6-carboxylic acid cyclopropylamide]"
2,360,"NC(=O)c1ccnc(C2=CCN(S(=O)(=O)c3cccc(C(F)(F)F)c3)CC2)n1 [2-[1-(3-Trifluoromethylbenzenesulfonyl)-1,2,3,6-tetrahydropyridin-4-yl]-pyrimidine-4-carboxylic acid amide]"
3,130,"O=C(NCC1CC1)c1ccnc(C2=CCN(S(=O)(=O)c3cccc(C(F)(F)F)c3)CC2)n1 [2-[1-(3-Trifluoromethylbenzenesulfonyl)-1,2,3,6-tetrahydropyridin-4-yl]pyrimidine-4-carboxylic acid cyclopropylmethylamide]"
4,240,"O=C(NC1CC1)c1ccnc(C2=CCN(S(=O)(=O)c3ccc(OC(F)(F)F)cc3)CC2)n1 [2-[1-(4-Trifluoromethoxybenzenesulfonyl)-1,2,3,6-tetrahydropyridin-4-yl]pyrimidine-4-carboxylic acid cyclopropylamide]"
5,490,"O=C(NC1CC1)c1nc(C2=CCN(S(=O)(=O)c3ccc(OC(F)(F)F)cc3)CC2)ccc1Cl [5-Chloro-1′-(4-trifluoromethoxybenzenesulfonyl)-1′,2′,3′,6′-tetrahydro-[2,4′]bipyridinyl-6-carboxylic acid cyclopropylamide]"
6,30,"O=C(NC1CC1)c1cccc(C2=CCN(S(=O)(=O)c3cccc(C(F)(F)F)c3)CC2)n1 [Compound 7, 1′-(3-Trifluoromethylbenzenesulfonyl)-1′,2′,3′,6′-tetrahydro-[2,4′]bipyridinyl-6-carboxylic acid cyclopropylamide]"
7,920,"COC(=O)c1cccc(C2=CCN(S(=O)(=O)c3cccc(C(F)(F)F)c3)CC2)n1 [Compound 25, 1′-(3-Trifluoromethylbenzenesulfonyl)-1′,2′,3′,6′-tetrahydro-[2,4′]bipyridinyl-6-carboxylic acid methyl ester]"
8,10,"O=C(NCC1CC1)c1cccc(C2=CCN(S(=O)(=O)c3cccc(C(F)(F)F)c3)CC2)n1 [Compound 27, 1′-(3-Trifluoromethylbenzenesulfonyl)-1′,2′,3′,6′-tetrahydro-[2,4′]bipyridinyl-6-carboxylic acid cyclopropylmethylamide]"
9,590,"NC(=O)c1cccc(C2=CCN(S(=O)(=O)c3cccc(C(F)(F)F)c3)CC2)n1 [Compound 28, 1′-(3-Trifluoromethylbenzenesulfonyl)-1′,2′,3′,6′-tetrahydro-[2,4′]bipyridinyl-6-carboxylic acid amide]"
10,320,"N=C(NCC1CC1)c1cccc(C2=CCN(S(=O)(=O)c3ccc(OC(F)(F)F)cc3)CC2)n1 [Compound 34, N-Cyclopropylmethyl-1′-(4-trifluoromethoxybenzenesulfonyl)-1′,2′,3′,6′-tetrahydro-[2,4′]bipyridinyl-6-carboxamidine]"
11,60,"O=C(NC1CC1)c1ccnc(C2=CCN(S(=O)(=O)c3cccc(C(F)(F)F)c3)CC2)n1 [Compound 39, 2-[1-(3-Trifluoromethylbenzenesulfonyl)-1,2,3,6-tetrahydropyridin-4-yl]pyrimidine-4-carboxylic acid cyclopropylamide]"
12,60,"O=C(NC1CC1)c1nc(C2=CCN(S(=O)(=O)c3cccc(C(F)(F)F)c3)CC2)ccc1Cl [Compound 44, 5-Chloro-1′-(3-trifluoromethylbenzenesulfonyl)-1′,2′,3′,6′-tetrahydro-[2,4′]bipyridinyl-6-carboxylic acid cyclopropylamide]"
13,320,"O=C(NC1CC1)c1coc(C2=CCN(S(=O)(=O)c3ccc(OC(F)(F)F)cc3)CC2)n1 [Compound 61, 2-[1-(4-Trifluoromethoxybenzenesulfonyl)-1,2,3,6-tetrahydropyridin-4-yl]oxazole-4-carboxylic acid cyclopropylamide]"
14,300,"O=C(Nc1cccc(C2=CCN(S(=O)(=O)c3cccc(C(F)(F)F)c3)CC2)n1)C1CC1 [Compound 82, 1′-(3-Trifluoromethylbenzenesulfonyl)-1′,2′,3′,6′-tetrahydro[2,4′]bipyridinyl-6-cyclopropanoylamine]"
